Measurements published in patent US10227329B2, “Compounds useful for treating disorders related to RET” (BLUEPRINT MEDICINES CORPORATION, priority 2016, dated 2019).

Assays:
RET V804L = RET V804L (Homo sapiens (Human), UniProt P07949, V804L); experiment: RET V804L Gatekeeper Mutant Assay at KM (Caliper electrophoretic mobility shift); format: biochemical; conditions: 10 μM ATP (KM), read-out: V480L Mutant
wild type RET = wild type RET (Homo sapiens (Human), UniProt P07949); experiment: RET Wild Type Assay at KM (Caliper electrophoretic mobility shift); format: biochemical; conditions: 25 μM ATP (KM)
Chain of wild type RET (P07949 29-1114): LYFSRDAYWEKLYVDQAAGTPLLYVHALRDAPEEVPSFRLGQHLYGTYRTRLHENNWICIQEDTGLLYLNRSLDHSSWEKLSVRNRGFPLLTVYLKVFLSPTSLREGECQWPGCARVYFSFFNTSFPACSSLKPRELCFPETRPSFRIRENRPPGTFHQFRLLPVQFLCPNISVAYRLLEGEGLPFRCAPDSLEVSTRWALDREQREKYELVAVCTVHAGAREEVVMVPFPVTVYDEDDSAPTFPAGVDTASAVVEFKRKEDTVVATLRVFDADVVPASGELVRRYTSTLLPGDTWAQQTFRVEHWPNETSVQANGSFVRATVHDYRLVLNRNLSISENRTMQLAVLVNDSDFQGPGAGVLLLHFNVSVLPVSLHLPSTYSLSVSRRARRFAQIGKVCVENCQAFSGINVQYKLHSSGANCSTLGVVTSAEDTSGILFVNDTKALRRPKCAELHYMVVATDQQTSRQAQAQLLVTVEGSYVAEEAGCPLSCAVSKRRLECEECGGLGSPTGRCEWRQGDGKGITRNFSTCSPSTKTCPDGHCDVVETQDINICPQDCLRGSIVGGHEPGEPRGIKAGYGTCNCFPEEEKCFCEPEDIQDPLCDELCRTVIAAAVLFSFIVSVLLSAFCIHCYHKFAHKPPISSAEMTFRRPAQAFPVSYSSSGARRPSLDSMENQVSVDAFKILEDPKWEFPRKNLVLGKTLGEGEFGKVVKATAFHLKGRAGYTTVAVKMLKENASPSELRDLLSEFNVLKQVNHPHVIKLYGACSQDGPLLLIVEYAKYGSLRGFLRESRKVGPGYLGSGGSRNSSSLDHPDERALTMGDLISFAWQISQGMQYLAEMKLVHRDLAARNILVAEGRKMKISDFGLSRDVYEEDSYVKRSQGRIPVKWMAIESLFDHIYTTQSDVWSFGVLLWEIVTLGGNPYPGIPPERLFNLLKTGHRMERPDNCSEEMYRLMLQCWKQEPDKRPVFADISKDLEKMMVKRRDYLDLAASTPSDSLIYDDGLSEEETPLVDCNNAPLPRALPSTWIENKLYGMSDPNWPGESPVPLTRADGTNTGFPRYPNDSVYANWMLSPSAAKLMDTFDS

Chain of RET V804L (P07949 29-1114 V804L): as the sequence (P07949 29-1114) above, with V776L counted along it

IC50 (RET V804L) | IC50 (wild type RET) | Structure (SMILES)
< 10 nM | < 10 nM | Cc1cc(Nc2cc(C)[nH]n2)nc(N2CCC(CO)(C(=O)N[C@@H](C)c3ccc(-n4cc(F)cn4)nc3)CC2)c1 [Compound 217]
< 10 nM | < 10 nM | Cc1cc(Nc2cc(C)[nH]n2)nc(N2CCC(CC#N)(C(=O)N[C@@H](C)c3ccc(-n4cccn4)nc3)CC2)n1 [Compound 206]
10 to 100 nM | > 100 nM | COc1ccc(CNC(=O)C2(O)CCN(c3nc(C)cc(Nc4cc(C)[nH]n4)n3)CC2)cc1 [Compound 106]
< 10 nM | < 10 nM | Cc1cc(Nc2cc(C)[nH]n2)nc(N2CC(C)(C(=O)N[C@@H](C)c3ccc(-n4cc(F)cn4)nc3)C2)c1 [Compound 139]
< 10 nM | < 10 nM | COC1(C(=O)N[C@@H](C)c2ccc(-n3cccn3)nc2)CCN(c2nc(C)cc(Nc3cc(C)[nH]n3)n2)CC1 [Compound 186]
< 10 nM | < 10 nM | Cc1cc(Nc2cc(C)[nH]n2)nc(N2CCC(CO)(C(=O)N[C@@H](C)c3ccc(-n4cc(F)cn4)nc3)CC2)n1 [Compound 219]
< 10 nM | < 10 nM | Cc1cc(Nc2cc(C)[nH]n2)nc(N2CCC(C(=O)N[C@@H](C)c3ccc(-n4cc(F)cn4)nc3)CC2)c1 [Compound 164]
< 10 nM | < 10 nM | Cc1cc(Nc2cc(C)[nH]n2)nc(N2CCC(C)(C(=O)N[C@@H](C)c3ccc(-n4cc(F)cn4)nc3)CC2)n1 [Compound 191]
< 10 nM | < 10 nM | COC1(C(=O)N[C@@H](C)c2ccc(-n3cc(F)cn3)nc2)CCN(c2cc(C)nc(Nc3cc(C)[nH]n3)n2)CC1 [Compound 220]
< 10 nM | < 10 nM | Cc1cc(Nc2cc(C)[nH]n2)nc(N2CC(O)(C(=O)N[C@@H](C)c3ccc(-n4cc(F)cn4)nc3)C2)c1 [Compound 145]
< 10 nM | < 10 nM | COC1(C(=O)N[C@@H](C)c2ccc(-n3cccn3)nc2)CN(c2cc(C(F)F)cc(Nc3cc(C)[nH]n3)n2)C1 [Compound 201]
< 10 nM | < 10 nM | Cc1cc(Nc2cc(C)[nH]n2)nc(N2CCC(O)(C(=O)N(C)[C@@H](C)c3ccc(-n4cccn4)nc3)CC2)n1 [Compound 187]
< 10 nM | < 10 nM | COC1(C(=O)N[C@@H](C)c2ccc(-n3cccn3)nc2)CN(c2nc(Nc3cc(C)[nH]n3)cc(C)c2C#N)C1 [Compound 175]
< 10 nM | < 10 nM | COC1(C(=O)N[C@@H](C)c2ccc(-n3cc(F)cn3)nc2)CN(c2cc(C)cc(Nc3cc(C)[nH]n3)n2)C1 [Compound 167]
< 10 nM | < 10 nM | CO[C@@]1(C(=O)N[C@@H](C)c2ccc(-n3cc(F)cn3)nc2)CN(c2nc(C)cc(Nc3cc(C)[nH]n3)n2)[C@@H]1C [Compound 198]
< 10 nM | < 10 nM | COC1(C(=O)N[C@@H](C)c2ccc(-n3cc(F)cn3)nc2)CN(c2cc(C(F)F)cc(Nc3cc(C)[nH]n3)n2)C1 [Compound 223]
10 to 100 nM | 10 to 100 nM | COc1ccc(CNC(=O)C2(O)CCN(c3cc(C)cc(Nc4cc(C)[nH]n4)n3)CC2)cc1 [Compound 105]
< 10 nM | < 10 nM | Cc1cc(Nc2cc(C)[nH]n2)nc(N2CCC(C)(C(=O)NCc3ccc(-n4cccn4)nc3)CC2)c1 [Compound 127]
< 10 nM | < 10 nM | Cc1cc(Nc2cc(C)[nH]n2)nc(N2CC(C)(C(=O)N[C@@H](C)c3ccc(-n4cccn4)nc3)C2)c1 [Compound 117]
10 to 100 nM | > 100 nM | Cc1cc(Nc2cc(C)[nH]n2)nc(N2CCC(O)(C(=O)NCc3ccccc3)CC2)c1 [Compound 102]
10 to 100 nM | 10 to 100 nM | CCOc1ccc(CNC(=O)C2(O)CCN(c3nc(C)cc(Nc4cc(C)[nH]n4)n3)CC2)cc1 [Compound 115]
< 10 nM | < 10 nM | COC1(C(=O)N[C@@H](C)c2ccc(-n3cc(F)cn3)nc2)CCN(c2nc(Nc3cc(C)[nH]n3)cc(C)c2C#N)CC1 [Compound 227]
< 10 nM | < 10 nM | COC1(C(=O)N[C@@H](C)c2ccc(-n3cc(F)cn3)nc2)CN(c2nc(C)cc(Nc3cc(C)[nH]n3)n2)C1 [Compound 169]
10 to 100 nM | > 100 nM | COc1ccc([C@H](C)NC(=O)C2(O)CCN(c3nc(C)cc(Nc4cc(C)[nH]n4)n3)CC2)cc1 [Compound 116]
< 10 nM | < 10 nM | CO[C@]1(C(=O)N[C@@H](C)c2ccc(-n3cc(F)cn3)nc2)CN(c2nc(C)cc(Nc3cc(C)[nH]n3)n2)[C@H]1C [Compound 199]
10 to 100 nM | 10 to 100 nM | COc1ccc([C@H](C)NC(=O)C2(OC)CCN(c3nc(C)cc(Nc4cc(C)[nH]n4)n3)CC2)cc1 [Compound 123]
10 to 100 nM | 10 to 100 nM | COc1ccc([C@H](C)NC(=O)C2(O)CCN(c3cc(C)cc(Nc4cc(C)[nH]n4)n3)CC2)cc1 [Compound 114]
< 10 nM | < 10 nM | Cc1cc(Nc2cc(C)[nH]n2)nc(N2CCC(F)(C(=O)N[C@@H](C)c3ccc(-n4cc(F)cn4)nc3)CC2)c1 [Compound 200]
< 10 nM | < 10 nM | Cc1cc(Nc2cc(C)[nH]n2)nc(N2CC(F)(C(=O)N[C@@H](C)c3ccc(-n4cc(F)cn4)nc3)C2)c1 [Compound 151]
< 10 nM | < 10 nM | COC1(C(=O)N(C)[C@@H](C)c2ccc(-n3cccn3)nc2)CCN(c2nc(C)cc(Nc3cc(C)[nH]n3)n2)CC1 [Compound 214]

More lines, now with the values behind:

Structure (SMILES) | IC50 (RET V804L) | IC50 (wild type RET)
Cc1cc(Nc2cc(C)[nH]n2)nc(N2CCC(C)(C(=O)NCc3ccc(-n4cccn4)nc3)CC2)n1 [Compound 129] | < 10 nM | < 10 nM
Cc1cc(Nc2cc(C)[nH]n2)nc(N2CC[C@H](C(=O)NCc3ccc(-n4cccn4)nc3)[C@H](O)C2)c1 [Compound 135] | 10 to 100 nM | 10 to 100 nM
Cc1cc(Nc2cc(C)[nH]n2)nc(N2CC(F)(C(=O)N[C@@H](C)c3ccc(-n4cc(F)cn4)nc3)C2)n1 [Compound 153] | < 10 nM | < 10 nM
Cc1cc(Nc2cc(C)c(C#N)c(N3CC(F)(C(=O)N[C@@H](C)c4ccc(-n5cccn5)nc4)C3)n2)n[nH]1 [Compound 157] | < 10 nM | < 10 nM
Cc1cc(Nc2cc(C)[nH]n2)nc(N2CC(F)(C(=O)N[C@@H](C)c3ccc(-n4cccn4)nc3)C2)n1 [Compound 122] | < 10 nM | < 10 nM
COC1(C(=O)NCc2ccc(-n3cc(F)cn3)nc2)CCN(c2nc(C)cc(Nc3cc(C)[nH]n3)n2)CC1 [Compound 195] | < 10 nM | < 10 nM
CCOC1(C(=O)N[C@@H](C)c2ccc(-n3cc(F)cn3)nc2)CN(c2nc(C)cc(Nc3cc(C)[nH]n3)n2)C1 [Compound 197] | < 10 nM | < 10 nM
Cc1cc(Nc2cc(C(F)F)cc(N3CC(F)(C(=O)N[C@@H](C)c4ccc(-n5cc(F)cn5)nc4)C3)n2)n[nH]1 [Compound 210] | < 10 nM | < 10 nM
COC1(C(=O)NCc2ccc(N3CC[C@H](F)C3)nc2)CN(c2nc(C)cc(Nc3cc(C)[nH]n3)n2)C1 [Compound 154] | > 100 nM | > 100 nM
COC1(C(=O)NCc2ccc(-n3cc(F)cn3)nc2)CN(c2nc(C)cc(Nc3cc(C)[nH]n3)n2)C1 [Compound 148] | < 10 nM | < 10 nM
Cc1cc(Nc2cc(C)[nH]n2)nc(N2CCC(C(=O)NCc3ccccc3)CC2)n1 [Compound 100] | 10 to 100 nM | > 100 nM
COC1(C(=O)NCc2ccc(-n3cc(F)cn3)nc2)CCN(c2nc(Nc3cc(C)[nH]n3)cc(C)c2C#N)CC1 [Compound 226] | < 10 nM | < 10 nM
Cc1cc(Nc2cc(C)c(F)c(N3CC(C(=O)N[C@@H](C)c4ccc(-n5cc(F)cn5)nc4)C3)n2)n[nH]1 [Compound 152] | < 10 nM | < 10 nM
CCC1(C(=O)N[C@@H](C)c2ccc(-n3cc(F)cn3)nc2)CN(c2nc(C)cc(Nc3cc(C)[nH]n3)n2)C1 [Compound 166, (S)-3-ethyl-N-(1-(6-(4-fluoro-1H-pyrazol-1-yl)pyridin-3-yl)ethyl)-1-(4-methyl-6-((5-methyl-1H-pyrazol-3-yl)amino)pyrimidin-2-yl)azetidine-3-carboxamide] | < 10 nM | < 10 nM
Cc1cc(Nc2cc(C)[nH]n2)nc(N2CC(C)(C(=O)NCc3ccc(-n4cccn4)nc3)C2)c1 [Compound 107, N-((6-(1H-pyrazol-1-yl)pyridin-3-yl)methyl)-3-methyl-1-(4-methyl-6-((5-methyl-1H-pyrazol-3-yl)amino)pyridin-2-yl)azetidine-3-carboxamide] | < 10 nM | < 10 nM
Cc1cc(Nc2cc(C)[nH]n2)nc(N2C[C@@H](C(=O)N[C@@H](C)c3ccc(-n4cc(F)cn4)nc3)[C@@H]2C)n1 [Compound 143] | < 10 nM | < 10 nM
Cc1cc(Nc2cc(C)[nH]n2)nc(N2CC(C(=O)N(C)[C@@H](C)c3ccc(-n4cc(F)cn4)nc3)C2)n1 [Compound 142] | < 10 nM | < 10 nM
Cc1cc(Nc2cc(C(F)F)cc(N3CC(F)(C(=O)NCc4cnc(-n5cc(F)cn5)cn4)C3)n2)n[nH]1 [Compound 183] | < 10 nM | < 10 nM
COC1(C(=O)NCc2ccc(-n3cccn3)nc2)CN(c2cc(C(F)F)cc(Nc3cc(C)[nH]n3)n2)C1 [Compound 173] | < 10 nM | < 10 nM
COC1(C(=O)NCc2ccc(-n3cccn3)nc2)CCN(c2nc(Nc3cc(C)[nH]n3)cc(C)c2C#N)CC1 [Compound 207] | < 10 nM | < 10 nM
Cc1cc(Nc2cc(C)[nH]n2)nc(N2CC(C#N)(C(=O)N[C@@H](C)c3ccc(-n4cccn4)nc3)C2)n1 [Compound 126] | < 10 nM | < 10 nM
Cc1cc(Nc2cc(C)c(F)c(N3CC(C(=O)N(C)[C@@H](C)c4ccc(-n5cc(F)cn5)nc4)C3)n2)n[nH]1 [Compound 171] | < 10 nM | < 10 nM
Cc1cc(Nc2cc(C(F)F)cc(N3CC(F)(C(=O)NCc4ccc(-n5cc(F)cn5)nc4)C3)n2)n[nH]1 [Compound 180] | < 10 nM | < 10 nM
